Key:
MKN-45 = experiment: In vitro cytotoxicity against MKN-45 (human stomach cancer) cells.; assay type: functional, cell-based
P388 [1] = experiment: Inhibition of protein-DNA complex in P388 (murine leukemia) cells.; assay type: functional, Mus musculus
DNA topoisomerase 1 = target: T1, DNA topoisomerase 1 (Homo sapiens, UniProt P11387); experiment: In vitro inhibition of Topoisomerase I-mediated DNA cleavage using supercoiled pBR322 plasmid DNA.
T1 sequence (P11387 whole entry): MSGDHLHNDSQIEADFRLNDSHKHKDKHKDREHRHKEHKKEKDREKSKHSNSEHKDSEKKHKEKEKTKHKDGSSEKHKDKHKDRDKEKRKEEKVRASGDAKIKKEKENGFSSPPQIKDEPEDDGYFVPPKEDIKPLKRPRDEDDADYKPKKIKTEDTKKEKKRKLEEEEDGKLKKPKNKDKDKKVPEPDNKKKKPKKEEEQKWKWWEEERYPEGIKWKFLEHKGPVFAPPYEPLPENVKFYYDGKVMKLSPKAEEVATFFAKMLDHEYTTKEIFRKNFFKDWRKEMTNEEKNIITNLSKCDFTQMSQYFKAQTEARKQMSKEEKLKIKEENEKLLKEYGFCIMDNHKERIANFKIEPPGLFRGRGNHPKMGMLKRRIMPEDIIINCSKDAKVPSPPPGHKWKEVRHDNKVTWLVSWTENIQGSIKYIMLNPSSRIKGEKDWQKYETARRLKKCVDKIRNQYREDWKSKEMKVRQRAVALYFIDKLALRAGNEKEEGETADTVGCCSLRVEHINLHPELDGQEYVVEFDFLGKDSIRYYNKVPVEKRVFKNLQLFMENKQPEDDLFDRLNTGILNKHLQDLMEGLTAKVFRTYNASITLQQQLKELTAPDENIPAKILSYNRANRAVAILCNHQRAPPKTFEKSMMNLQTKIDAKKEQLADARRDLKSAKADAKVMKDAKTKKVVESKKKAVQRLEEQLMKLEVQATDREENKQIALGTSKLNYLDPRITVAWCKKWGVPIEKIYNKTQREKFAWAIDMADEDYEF

DLD-1 = experiment: In vitro cytotoxicity against DLD-1 (human colon cancer) cells.; assay type: functional, cell-based
P388 [2] = experiment: In vitro cytotoxicity against p388 (murine leukemia) cells.; assay type: functional, cell-based; settings: Mus musculus
[3] = Compound was tested for anticancer effect on cancer cells implanted subcutaneously into flanks of nude mice and safety margin was determined (LD10/GID75); assay type: functional, Cancer cell lines
Mus musculus = experiment: Tested for anticancer effect on MKN-45 human stomach cancer cells implanted subcutaneously into flanks of nude mice.; assay type: functional

Structure (SMILES)	IC50 (MKN-45) [µM]	EC200 (P388 [1]) [µM]	EC50 (DNA topoisomerase 1) [µM]	IC50 (DLD-1) [µM]	IC50 (P388 [2]) [µM]	Ratio [3]	GID75 (Mus musculus) [mg m**-2]	LD10 (Mus musculus) [mg m**-2]
O=C1c2c(c3c4cc(O)ccc4n(C4OC(CO)C(O)C(O)C4O)c3c3[nH]c4ccccc4c23)C(=O)N1NC(CO)CO (stereo not given)	4.2	4.5	1.9	> 30	0.047	–	–	–
O=C1c2c(c3c4ccc(O)cc4n(C4OC(CO)C(O)C(O)C4O)c3c3[nH]c4ccccc4c23)C(=O)N1NC(CO)CO (stereo not given)	0.025	0.4	0.23	1	0.0031	1.3	800	1000
O=C1c2c(c3c4cc(O)ccc4n(C4OC(CO)C(O)C(O)C4O)c3c3[nH]c4c(O)cccc4c23)C(=O)N1NC(CO)CO (stereo not given)	0.3	3	0.13	5.1	0.031	0.8	2200	1800
O=C1c2c(c3c4cccc(O)c4n(C4OC(CO)C(O)C(O)C4O)c3c3[nH]c4cc(O)ccc4c23)C(=O)N1NC(CO)CO (stereo not given)	0.087	0.4	0.16	0.089	0.0054	1.7	220	370
O=C1c2c(c3c4ccccc4n(C4OC(CO)C(O)C(O)C4O)c3c3[nH]c4ccc(O)cc4c23)C(=O)N1NC(CO)CO (stereo not given)	0.72	2	1.1	5.5	0.13	–	–	–
O=C1c2c(c3c4ccccc4n(C4OC(CO)C(O)C(O)C4O)c3c3[nH]c4cccc(O)c4c23)C(=O)N1NC(CO)CO (stereo not given)	2.1	>10	0.57	> 30	0.7	–	–	–
O=C1c2c(c3c4cc(O)ccc4n(C4OC(CO)C(O)C(O)C4O)c3c3[nH]c4ccc(O)cc4c23)C(=O)N1NC(CO)CO (stereo not given)	0.25	0.6	0.21	11	0.0068	1.3	300	380
O=C1c2c(c3c4ccc(O)cc4n(C4OC(CO)C(O)C(O)C4O)c3c3[nH]c4ccc(O)cc4c23)C(=O)N1NC(CO)CO (stereo not given)	0.056	0.35	0.037	0.079	0.0052	3.4	290	1000
O=C1c2c(c3c4ccc(O)cc4n(C4OC(CO)C(O)C(O)C4O)c3c3[nH]c4c(O)cccc4c23)C(=O)N1NC(CO)CO (stereo not given)	0.065	0.8	0.055	0.2	0.01	1.1	320	350
O=C1c2c(c3c4cccc(O)c4n(C4OC(CO)C(O)C(O)C4O)c3c3[nH]c4ccc(O)cc4c23)C(=O)N1NC(CO)CO (stereo not given)	0.25	0.55	0.51	0.22	0.032	0.8	2500	1900
O=C1c2c(c3c4cc(O)ccc4n(C4OC(CO)C(O)C(O)C4O)c3c3[nH]c4cc(O)ccc4c23)C(=O)N1NC(CO)CO (stereo not given)	0.12	0.65	0.055	0.34	0.0035	1.4	710	1000
O=C1c2c(c3c4cccc(O)c4n(C4OC(CO)C(O)C(O)C4O)c3c3[nH]c4c(O)cccc4c23)C(=O)N1NC(CO)CO (stereo not given)	–	0.45	–	0.52	–	5	78	390
O=C1c2c(c3c4cccc(O)c4n(C4OC(CO)C(O)C(O)C4O)c3c3[nH]c4ccccc4c23)C(=O)N1NC(CO)CO (stereo not given)	0.64	2	0.65	2.6	0.022	–	–	–
O=C1c2c(c3c4ccc(O)cc4n(C4OC(CO)C(O)C(O)C4O)c3c3[nH]c4cc(O)ccc4c23)C(=O)N1NC(CO)CO (stereo not given)	0.0048	0.1	0.051	0.12	0.0015	>36	45	>1600
O=C1c2c(c3c4ccc(O)cc4n(C4OC(CO)C(O)C(O)C4O)c3c3[nH]c4c(O)cc(O)cc4c23)C(=O)N1NC(CO)CO (stereo not given)	> 30	>10	0.09	> 30	15	–	–	–
O=C1c2c(c3c4ccccc4n(C4OC(CO)C(O)C(O)C4O)c3c3[nH]c4cc(O)ccc4c23)C(=O)N1NC(CO)CO (stereo not given)	0.11	1.2	0.65	2	0.013	3.3	820	2700
O=C1c2c(c3c4cc(O)cc(O)c4n(C4OC(CO)C(O)C(O)C4O)c3c3[nH]c4c(O)cc(O)cc4c23)C(=O)N1NC(CO)CO (stereo not given)	> 30	5.5	0.35	> 30	> 30	–	–	–
O=C1c2c(c3c4ccccc4n(C4OC(CO)C(O)C(O)C4O)c3c3[nH]c4c(O)cccc4c23)C(=O)N1NC(CO)CO (stereo not given)	1.6	>10	0.21	10	0.14	–	–	–
O=C1c2c(c3c4c(O)cccc4n(C4OC(CO)C(O)C(O)C4O)c3c3[nH]c4ccccc4c23)C(=O)N1NC(CO)CO (stereo not given)	7.1	>10	0.49	> 30	0.91	–	–	–
